# Tested on: male and female Sprague–Dawley rats
# Experiment: 90-day subchronic oral gavage toxicity study
# Format: in vivo, rat
# Details: female
# Description: Subchronic (90-day) studies were performed in accordance with current U.S. EPA’s Toxic Substances Control Act Good Laboratory Practice (GLP) Standards, with the following two general exceptions to the GLP guidelines: Analysis of the dose formulations was conducted according to RTI-approved Standard Operating Procedures, and corn oil (the vehicle) was not characterized (certificate of analysis from the vendor is available in the appendices to the final reports). Male and female Sprague–Dawley rats (five dose levels plus a control, n = 10/sex/dose group, corn oil vehicle dose volume of 3 mL/kg; oral gavage) were used in these studies, and the rats were euthanized on SD 91. The dose levels for PFHI were 0, 12.5, 25, 50, 100, and 200 mg/kg-day. The dose levels for MHFPK were 0, 18.8, 37.5, 75, 150, and 300 mg/kg-day. The dose levels for PFNAC were 0, 0.1, 0.3, 1.0, 3.0, and 10 mg/kg-day for male rats and 0, 0.3, 1.0, 3.0, 10, and 30 mg/kg-day for female rats. For CTFPA, the dose levels were 0, 1.9, 3.8. 7.5, 15, and 30 mg/kg-day for male rats and 0, 6.3, 12.5, 25, 50, and 100 mg/kg-day for female rats. For each PFAS, three batches of dosing solution were prepared. The time between the batch preparation of the dosing solutions ranged between 29 and 39 days. Blood samples were collected from all the rats at termination for serum chemistry, hematology, coagulation, and the analysis of the parent PFAS chemical in the plasma. In vivo data collection and further detail on the endpoints examined postmortem are described below.
# The rats were observed twice daily for morbidity and mortality throughout the study period. At least once prior to randomization to test groups and weekly thereafter, the rats were physically examined, and bodyweights were obtained. Feed consumption was quantified weekly starting on SD 1.
# Neurotoxicity was evaluated using the functional observational battery (FOB) and measuring locomotor activity (LMA) 2–4 h post dosing on SDs 78–80 and 80–84, respectively. For both the 14- and 90-day studies, an ophthalmologic examination was conducted prior to randomization and near the end of the study, using indirect ophthalmoscopy and slit–lamp biomicroscopy (as needed) after the administration of a mydriatic solution.
# Hematology, biochemistry, and coagulation endpoints were measured at the termination of the study. A Siemens Advia 2120i hematology analyzer (Siemens Healthineers, Erlangen, Germany) was used to measure (or calculate) the parameters related to the complete blood count, leukocyte differential count, and reticulocyte count. The hematology parameters are listed and described in Table 2. The prothrombin time […] and activated partial thromboplastin time (APTT) were measured using an Instrumentation Laboratory (Bedford, MA, USA) ACL Elite Pro coagulation analyzer (laser–nephelometric centrifugal method).
# At necropsy, the rats were visually examined for external abnormalities and organ weights (absolute and relative to the BW and brain weight), which were recorded (paired organs weighed together). The tissues were preserved in 10% neutral buffered formalin (NBF), except for the ocular tissues, testes, and epididymides, which were preserved in modified Davidson’s fixative and later transferred to 10% NBF. Bone marrow smears were prepared from the femurs, and the slides were air-dried, fixed in methanol, stained, and stored at room temperature for possible future evaluation. The preserved tissues were embedded in paraffin, sectioned, stained with hematoxylin and eosin, and examined by a board-certified veterinary pathologist.
# Statistical analysis was performed using Provantis™ Version 10 or greater (Instem LSS, Limited; Stone, Staffordshire, UK). Differences among the treatment groups compared to the control were evaluated using one-way analysis of variance (ANOVA) if the underlying assumptions of a normal distribution (Shapiro–Wilk test) and the homogeneity of the variance (Levene’s test) were satisfied. […]
smiles,measurement,setting,value
"C=CC(=O)OCC(F)(F)C(F)(F)C(F)(F)C(F)(F)C(F)(F)C(F)(F)C(F)(F)C(F)F [PFNAC, 1H,1H,9H-Perfluorononyl acrylate]",Kidney Weight,1.0 mg/kg-day,1.73 g
same,Kidney/Body Weight,1.0 mg/kg-day,0.59%
same,Kidney/Brain Weight,1.0 mg/kg-day,90.7%
same,Liver Weight,1.0 mg/kg-day,7.89 g
same,Liver/Body Weight,1.0 mg/kg-day,2.67%
same,Liver/Brain Weight,1.0 mg/kg-day,412%
same,MPV,1.0 mg/kg-day,7.59 ± 0.74 fL
same,PT,1.0 mg/kg-day,14.03 s
same,RBC,1.0 mg/kg-day,7.303±0.562 M/µL
same,Total BW change,1.0 mg/kg-day,94.80 g
same,Total Food Consumed,1.0 mg/kg-day,1444 g
same,% BW Gain,3.0 mg/kg-day,47.09%
same,"% Diff, % BW Gain",3.0 mg/kg-day,-3.49%
same,"% Diff, Total BW change",3.0 mg/kg-day,-2.02%
same,"% Diff, Total Food Consumed",3.0 mg/kg-day,7.48%
same,A/G,3.0 mg/kg-day,1.15±0.06 ratio
same,ABEOS,3.0 mg/kg-day,0.083±0.028 K/µL
same,ABNEUT,3.0 mg/kg-day,1.419±0.734 K/µL
same,ABRETi,3.0 mg/kg-day,176.48±43.69 10^9/L
same,ALB,3.0 mg/kg-day,4.56 ± 0.18 g/dL
same,ALPi,3.0 mg/kg-day,55.4±20.6 U/L
same,APTT,3.0 mg/kg-day,20.34 s
same,BUN,3.0 mg/kg-day,16.4 ± 1.3 mg/dL
same,CHOL,3.0 mg/kg-day,92.3 ± 16.3 mg/dL
same,GLOB,3.0 mg/kg-day,3.97 ± 0.13 g/dL
same,GLUC,3.0 mg/kg-day,104.4 ± 8.0 mg/dL
same,HCT,3.0 mg/kg-day,41.82±2.32%
same,HGB,3.0 mg/kg-day,13.37 ± 0.68 g/dL
same,Kidney Weight,3.0 mg/kg-day,1.83 g
same,Kidney/Body Weight,3.0 mg/kg-day,0.61%
same,Kidney/Brain Weight,3.0 mg/kg-day,91.1%
same,Liver Weight,3.0 mg/kg-day,7.96 g
same,Liver/Body Weight,3.0 mg/kg-day,2.67%
same,Liver/Brain Weight,3.0 mg/kg-day,396%
same,MPV,3.0 mg/kg-day,7.77 ± 0.42 fL
same,PT,3.0 mg/kg-day,14.15 s
same,RBC,3.0 mg/kg-day,7.262±0.327 M/µL
same,Total BW change,3.0 mg/kg-day,99.10 g
same,Total Food Consumed,3.0 mg/kg-day,1512 g
same,% BW Gain,10 mg/kg-day,46.00%
same,"% Diff, % BW Gain",10 mg/kg-day,-5.72%
same,"% Diff, Total BW change",10 mg/kg-day,-5.60%
same,"% Diff, Total Food Consumed",10 mg/kg-day,5.11%
same,A/G,10 mg/kg-day,1.17±0.07 ratio
same,ABEOS,10 mg/kg-day,0.081±0.022 K/µL
same,ABNEUT,10 mg/kg-day,1.562±1.084 K/µL
same,ABRETi,10 mg/kg-day,160.88±34.97 10^9/L
same,ALB,10 mg/kg-day,4.66 ± 0.39 g/dL
same,ALPi,10 mg/kg-day,50.5±7.3 U/L
same,APTT,10 mg/kg-day,22.50 s
same,BUN,10 mg/kg-day,19.1 ± 3.5 mg/dL
same,CHOL,10 mg/kg-day,77.7 ± 14.0 mg/dL
same,GLOB,10 mg/kg-day,3.98 ± 0.29 g/dL
same,GLUC,10 mg/kg-day,108.8 ± 12.0 mg/dL
same,HCT,10 mg/kg-day,41.08±2.03%
same,HGB,10 mg/kg-day,13.12 ± 0.63 g/dL
same,Kidney Weight,10 mg/kg-day,1.81 g
same,Kidney/Body Weight,10 mg/kg-day,0.62%
same,Kidney/Brain Weight,10 mg/kg-day,89.98%
same,Liver Weight,10 mg/kg-day,8.42 g
same,Liver/Body Weight,10 mg/kg-day,2.88%
same,Liver/Brain Weight,10 mg/kg-day,419%
same,MPV,10 mg/kg-day,7.80 ± 0.60 fL
same,PT,10 mg/kg-day,14.11 s
same,RBC,10 mg/kg-day,7.241±0.358 M/µL
same,Total BW change,10 mg/kg-day,95.48 g
same,Total Food Consumed,10 mg/kg-day,1479 g
same,% BW Gain,30 mg/kg-day,52.06%
same,"% Diff, % BW Gain",30 mg/kg-day,6.69%
same,"% Diff, Total BW change",30 mg/kg-day,5.59%
same,"% Diff, Total Food Consumed",30 mg/kg-day,8.40%
same,ABEOS,30 mg/kg-day,0.082±0.026 K/µL
same,ABNEUT,30 mg/kg-day,1.118±0.358 K/µL
same,ABRETi,30 mg/kg-day,164.87±31.05 10^9/L
same,APTT,30 mg/kg-day,22.09 s
same,HCT,30 mg/kg-day,40.37±2.37%
same,HGB,30 mg/kg-day,13.04 ± 0.72 g/dL
same,Kidney Weight,30 mg/kg-day,1.99 g
same,Kidney/Body Weight,30 mg/kg-day,0.65%
same,Kidney/Brain Weight,30 mg/kg-day,101%
same,Liver Weight,30 mg/kg-day,9.83 g

# From publication PMC12298827, “Subchronic Toxicities of Four Per- and Polyfluoroalkyl Substances (PFASs) by Oral Exposure in Sprague–Dawley Rats” (Toxics, 2025)
